Measurements taken from US20060105361A1, “Donor yeast strain for transfer of genetic material” (priority 2004, published 2006).

System: wild-type strains
Assay: Spot tests of yeast strains on SD-leu plates containing camptothecin and CuSO4
Format: cell-based, Saccharomyces cerevisiae
Description: The mutant and wild-type TOP1 were cloned under the control of the copper-inducible CUP1 promoter. These plasmids were transformed into the MATa universal donor strain (J1361), the MATalpha deletion library wild-type strain (BY4742) and rad9 and rad50 deletion strains from the library. Transformation reactions were plated on SD-leu media and incubated for 3 days at 30° C. to allow colony growth. […] B. Transformants from A were grown overnight in liquid SD-leu media, equalized by OD, serially diluted and spotted onto SD-leu plates containing the indicated concentrations of CuSO4. Each panel is a group of three strains containing the vector, TOP1 or TOP1-T722A plasmids as indicated on the right. […] Spot tests shown at the bottom contain 5 μg/ml camptothecin.

CC[C@@]1(O)C(=O)OCc2c1cc1n(c2=O)Cc2cc3ccccc3nc2-1 [camptothecin]
sensitivity (viability in spot test) of strains containing the TOP1-T722A plasmid (5 μg/ml camptothecin, wild-type cells with CUP1-promoter TOP1-T722A plasmid, graded CuSO4): roughly additive effect of the TOP1-T722A mutant in conjunction with camptothecin
sensitivity (viability in spot test) of strains containing the TOP1 plasmid (5 μg/ml camptothecin, wild-type strain (BY4742) with CUP1-promoter TOP1 plasmid, graded CuSO4): only sensitive to the drug when Top1 is overexpressed by 100 μM copper
viability of the library strain on plates containing camptothecin (library strain is TOP1, relatively low doses of drug, no TOP1 overexpression): do not affect viability
